Experimental data reported in PMC6336783, “Crystal structure of the multidrug resistance regulator RamR complexed with bile acids” (Scientific Reports, 2019).

T1: RamR (Salmonella typhimurium, UniProt Q8ZR43)
T1 construct: made in house
T1 sequence (Q8ZR43 1-193): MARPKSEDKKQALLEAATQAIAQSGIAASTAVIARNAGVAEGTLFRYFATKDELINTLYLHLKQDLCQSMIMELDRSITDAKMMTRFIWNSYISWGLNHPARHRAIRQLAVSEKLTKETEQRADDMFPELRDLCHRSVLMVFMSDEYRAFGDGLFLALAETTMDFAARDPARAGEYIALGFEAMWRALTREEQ


How the values were obtained:
[1] = test system: ramA mRNA levels in wild-type S. Typhimurium strain; assay type: cell-based, Salmonella enterica serovar Typhimurium; conditions: LB broth with 5 mM bile acid, qRT-PCR
Protocol: (§1) The bacterial strains and the plasmids used in this study are listed in Supplementary Table 3. The S. enterica serovar Typhimurium strains were the wild-type strain ATCC14028s[21] and its ∆ramR mutant (which was produced as described previously)[22]. Bacterial strains were grown at 37 °C in Luria–Bertani broth supplemented, when appropriate, with ampicillin (100 µg/ml), kanamycin (25 µg/ml) or chloramphenicol (25 µg/ml).
(§2) Bacteria were grown until mid-log phase (OD600 of 0.6) and harvested by centrifugation. Pelleted cells were stabilized with RNAprotect Bacteria Reagent (Qiagen) and stored at −80 °C until needed. Total RNA was extracted using an RNeasy Mini kit (Qiagen). Removal of residual genomic DNA was performed using a Turbo DNA-free kit (Ambion) and checked by negative PCR amplification of the chromosomal sequence. RNA integrity was verified by electrophoresis on a 1% agarose gel. Total RNA (1.5 µg) was reverse-transcribed using random hexamers and the Superscript III First Strand Synthesis System (Applied Biosystems). The expression level of each gene of interest was calculated as the average of the results from three independent cDNA samples. For each cDNA sample and each gene, qRT-PCR runs were performed in duplicated wells and the primers used for qRT-PCR are listed in Supplementary Table 4. The cycling conditions were: 95 °C for 5 min followed by 40 cycles of 95 °C for 10 s and then 60 °C for 15 s. After each run, amplification specificity and the absence of primer dimers were verified using a dissociation curve, acquired by heating the PCR products from 60 °C to 95 °C. The relative quantities of transcripts were determined using a standard curve and normalized against the geometric mean of three reference genes (gmk, gyrB and rrs).

[2] = test system: ramA mRNA levels in ∆ramR Salmonella strain; assay type: cell-based, Salmonella enterica serovar Typhimurium; conditions: LB broth with 5 mM bile acid, qRT-PCR
Protocol: as §1, §2

[3] = molecular target: interaction between RamR and PramA (Salmonella typhimurium, UniProt Q8ZR43); assay: SPR inhibition of RamR binding to the 100-bp DNA fragment with the RamR-binding site; conditions: for inhibition at 500 µM: read-out: inhibition of the interaction between RamR and the DNA fragment
RamR = molecular target: T1, RamR; assay: SPR binding of bile acids to immobilized RamR; parameters: species or system Salmonella enterica serovar Typhimurium
Protocol: Because cholic and chenodeoxycholic acids induce ramA in a RamR-dependent manner, we hypothesized that these compounds are recognized by RamR. To test the possibility that cholic and chenodeoxycholic acids may bind to RamR, we employed surface plasmon resonance (SPR) analysis using a Biacore T200 instrument (GE Healthcare).
Dissociation was also recorded for 2 min.

[4] = molecular target: the molecule itself; assay: crystal structure; co-crystals of RamR with a 5-fold molar excess of cholic or chenodeoxycholic acid; hanging drops, vapor diffusion, 25 °C; 20 mM sodium phosphate (pH 6.6), 75 mM NaCl, 2 mM DTT

Molecule | fold difference in ramA mRNA levels relative to the control in the same strain [1] | fold difference in ramA mRNA levels relative to the control in the same strain [2] | IC50 [3] | inhibition at 500 µM [3] | Kd (RamR) | binding result [4]
C[C@H](CCC(=O)O)[C@H]1CC[C@H]2[C@@H]3CC[C@@H]4C[C@H](O)CC[C@]4(C)[C@H]3C[C@H](O)[C@]12C [deoxycholic acid, 3α, 12αdihydroxy-5β-cholan-24-oic acid] | 1.7 fold | 2.7 fold | 318 µM | ~50% |  | 
C[C@H](CCC(=O)O)[C@H]1CC[C@H]2[C@@H]3[C@H](O)C[C@@H]4C[C@H](O)CC[C@]4(C)[C@H]3CC[C@]12C [chenodeoxycholic acid, 3α, 7α-dihydroxy-5β-cholan-24-oic acid] |  | 0.8 fold | 19.2 µM | ≥ 90% | 65.3 µM | 
C[C@H](CCC(=O)O)[C@H]1CC[C@H]2[C@@H]3[C@H](O)C[C@@H]4C[C@H](O)CC[C@]4(C)[C@H]3C[C@H](O)[C@]12C [cholic acid, 3α, 7α, 12α-trihydroxy-5β-cholan-24-oic acid] |  | 1.6 fold | 33 µM | ≥ 90% | 60.5 µM | 
RamR (natural protein, Salmonella enterica serovar Typhimurium, RamR, TetR-family transcriptional repressor of ramA, Salmonella enterica serovar Typhimurium; ligand-free structure PDB 3VVX; also called multidrug resistance regulator RamR; local transcriptional repressor RamR) ARPKSEDKKQALLEAATQAIAQSGIAASTAVIARNAGVAEGTLFRYFATKDELINTLYLHLKQDLCQSMIMELDRSITDAKMMTRFIWNSYISWGLNHPARHRAIRQLAVSEKLTKETEQRADDMFPELRDLCHRSVLMVFMSDEYRAFGDGLFLALAETTMDFAARDPARAGEYIALGFEAMWRALTREEQ |  |  |  |  |  | binds
